{"source": "patent US9211313B2", "about": "“Methods and compound to inhibit Ca2+ permeable cation conductance” (priority 2011, dated 2015)", "key": {"[1]": {"tested_on": "mechanosensitive channel (MSC)", "settings": "previously shown; cited from earlier work"}, "KCa3.1": {"target": "T1, KCa3.1 (Homo sapiens, UniProt O15554)", "T1 construct": "KCa3.1 activity stimulated in intact human AA cells by 1 μM A23187; endogenous in cells; host or cells: intact human AA red blood cells", "T1 sequence (O15554 whole entry)": "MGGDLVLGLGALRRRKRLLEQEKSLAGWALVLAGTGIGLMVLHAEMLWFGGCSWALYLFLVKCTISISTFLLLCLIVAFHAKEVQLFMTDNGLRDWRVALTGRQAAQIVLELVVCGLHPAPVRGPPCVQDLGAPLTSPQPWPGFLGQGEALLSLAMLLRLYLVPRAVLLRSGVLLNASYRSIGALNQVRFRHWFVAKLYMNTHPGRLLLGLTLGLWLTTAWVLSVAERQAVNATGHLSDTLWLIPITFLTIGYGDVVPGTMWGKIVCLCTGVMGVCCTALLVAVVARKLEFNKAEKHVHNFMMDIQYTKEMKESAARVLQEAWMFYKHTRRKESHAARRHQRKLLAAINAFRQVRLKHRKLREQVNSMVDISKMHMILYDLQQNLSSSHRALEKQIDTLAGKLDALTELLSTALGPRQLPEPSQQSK", "type": "cell-based", "settings": "1 μM; intact human AA cells, 1 μM A23187, extracellular Ca2+; n=3"}, "[2]": {"tested_on": "SAD sickle mouse red cells", "test": "Fluo-3 fluorescence measurement of [Ca2+]i during deoxygenation, SAD cells", "type": "cell-based", "settings": "1 μM; SAD red cells", "protocol": "Blood was withdrawn by cardiac puncture or from the tail vein of C57B16/J wildtype mice, SAD sickle mice, or Berkeley sickle mice into heparinized syringes by IACUC-approved protocols of Beth Israel Deaconess Medical Center. Buffy coat-depleted cells were washed 5 times in standard mouse red cell wash solution containing (in mM) 172 choline Cl, 10 sucrose, 10 Na Tris-MOPS, pH 7.4, resuspended in storage solution, and kept at 4° C. until use.\n(§1) Fluorescence measurements of cytosolic [Ca^2+] ([Ca^2+]i): After removal of plasma and buffy coat by aspiration, human or mouse red cells were washed three times at room temperature and suspended in modified Hank's solution containing (in mM), 137 NaCl, 5.4 KCl, 1 CaCl2, 1 MgCl2, 0.8 NaK phosphate, 5.6 glucose, and 10 Na HEPES, pH 7.4. Dilute cell suspensions were settled on polylysine-coated coverslips forming the bottom of an open perfusion chamber (2.5 cm diameter, 1 cm depth) and washed again 3 times.\nMeasurement of relative changes in [Ca^2+]i by Fluo-3 fluorescence emission was previously validated in intact human (Yang et al. 2000, Blood, 95(7):2421-2425; Andrews et al. 2002, Blood, 199(9):3392-3399) and mouse red cells (Akel et al. 2007, Amer. J. Physiol., 292(5):C1759-1767). Attached red cells were loaded in the dark with the fluorescent non-ratiometric Ca^2+ indicator Fluo-3-AM (10 μM, Molecular Probes, Eugene, Oreg.) at 37° C. for 1 hr, then washed and incubated 15 min further to allow de-esterification of intracellular dye. The open perfusion chamber containing dye-loaded cells was mounted on an Olympus IMT-2 inverted epifluorescence microscope equipped with CoolSNAP CCD camera (Photometrics, Tucson, Ariz.). Fluo-3 in cells imaged through a 60× objective was excited by mercury-xenon illumination passed through a 495ds20 filter. Fluorescence emission (proportional to [Ca^2+]i) from a 535ds20 bandpass filter was collected from all attached single cells within the arbitrarily selected visual field. Emission image acquisition was controlled by a Metafluor digital imaging system (Universal Imaging, West Chester, Pa.).\n(§2) Fluo-3 fluorescence from attached cells on each coverslip was recorded 60 sec in room air and then for 10 min after onset of perfusion chamber flushing with humidified 100% N2. The normalized increase in Fluo-3 fluorescence in SS cells subjected to this deoxygenation procedure was indistinguishable from that observed during superfusion of cells in a closed perfusion chamber via syringe pump with bath previously bubbled for 60 min with 100% N2 (n=62 cells from 2 SS patients, not shown). The y-axis value of 0% change in Fluo-3 fluorescence intensity represented mean intensity recorded from all cells within the coverslip visual field during the 60 sec prior to deoxygenation."}, "red cell": {"tested_on": "red cell", "type": "cell-based", "settings": "data not shown"}, "human SS red cells": {"tested_on": "human SS red cells", "test": "Fluo-3 fluorescence measurement of [Ca2+]i during deoxygenation, human SS cells", "type": "cell-based", "settings": "1 μM, 10 min pretreatment and continued presence in bath", "protocol": "Blood cell preparation: Human SS and AA blood was obtained under IRB-approved protocols of Children's Hospital and Beth Israel Deaconess Medical Center. After buffy coat removal and 5 washes in standard human red cell wash solution containing (in mM) 150 choline Cl, 1 MgCl, and 10 Tris-MOPS, pH 7.4, red cells were resuspended in storage solution containing (in mM) 145 KCl, 15 NaCl, and 10 HEPES, pH 7.4, then kept at 4° C. until used. Human red cells allowed to settle on coverslips were mounted on an inverted microscope in a 200 μl open chamber (WPI, Sarasota, Fla.) and superfused 15 min at room temperature by bath solution containing (in mM) 150 Na methanesulfonate, 10 Na EDTA, and 10 Na HEPES, pH 7.4.\nWashed human or mouse red cells in solution containing (in mM) 140 NaCl, 5 KCl, 1 CaCl2, 1 MgCl2, 10 Na HEPES, pH 7.4 were exposed for 1 hr on a rotary platform in a 37° C. incubator to 25 ppm carbon monoxide (CO) in 5% CO2. CO-exposed cells were then subjected to patch clamp or to calcium imaging experiments within 60 min after return to room air, using the solutions indicated.\nas §1\nMeasurement of relative changes in [Ca^2+]i by Fluo-3 fluorescence emission was previously validated in intact human (Yang et al. 2000, Blood, 95(7):2421-2425; Andrews et al. 2002, Blood, 199(9):3392-3399) and mouse red cells (Akel et al. 2007, Amer. J. Physiol., 292(5):C1759-1767). […] Fluorescence emission (proportional to [Ca^2+]i) from a 535ds20 bandpass filter was collected from all attached single cells within the arbitrarily selected visual field. […]\nas §2"}, "mdx mice": {"tested_on": "mdx mice", "test": "Toxicity with daily subQ dosing for 30 days", "type": "in vivo, mouse", "protocol": "This example describes toxicity studies with GsMTx-4. In one experiment, D-GsMTx4 was administered to 60 mdx mice and controls by daily subQ dosing at 5 mg/kg for 30 days at the Washington D.C. Wellstone center."}}}
{"substance": "Grammastola spatulata mechanotoxin 4 (GCLEFWWKCNPNDDKCCRPKLKCSKLFKLCNFSF; listed as Grammastola spatulata) [GsMTx-4]", "values": [{"measurement": "effect on mechanosensitive channel (MSC) activity", "setting": "[1]", "value": "block"}, {"measurement": "effect on KCa3.1 activity, cell shrinkage", "setting": "KCa3.1", "value": "no effect"}, {"measurement": "effect on increased [Ca2+]i accompanying deoxygenation", "setting": "[2]", "value": "completely inhibited"}, {"measurement": "effect on red cell shape", "setting": "red cell", "value": "did not alter"}, {"measurement": "effect on [Ca2+]i elevation by deoxygenation", "setting": "human SS red cells", "value": "prevented"}, {"measurement": "effect on [Ca2+]i elevation by deoxygenation", "setting": "human SS red cells; listed as GsMTx4", "value": "nearly completely block"}, {"measurement": "effect on [Ca2+]i elevation by deoxygenation", "setting": "human SS red cells; listed as GsTMx-4", "value": "blocked"}, {"measurement": "toxicity in mice, general statement", "setting": "mdx mice", "value": "very low to absent toxicity"}, {"measurement": "toxicity", "setting": "mdx mice; 5 mg/kg subQ daily, 30 days (month long)", "value": "no toxicity observed"}]}
